The target in assay [1] is T1, Ketohexokinase (Homo sapiens, UniProt P50053).
T1 sequence (P50053 whole entry): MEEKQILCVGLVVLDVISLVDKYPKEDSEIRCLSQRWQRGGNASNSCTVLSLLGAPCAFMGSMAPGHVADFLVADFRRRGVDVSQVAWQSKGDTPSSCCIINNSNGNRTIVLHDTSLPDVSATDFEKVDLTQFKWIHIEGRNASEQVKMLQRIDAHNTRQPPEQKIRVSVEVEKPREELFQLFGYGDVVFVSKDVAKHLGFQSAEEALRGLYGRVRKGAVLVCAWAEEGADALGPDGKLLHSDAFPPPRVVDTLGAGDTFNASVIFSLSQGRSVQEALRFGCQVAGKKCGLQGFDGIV
Nature of the assay: Inhibition of human ketohexokinase isoform C expressed in Escherichia coli BL21 (DE3) cells using D-fructose as substrate after 12 to 15 mins by fluorescence polarization assay.

Assay [2] addresses T1, Ketohexokinase. Nature of the assay: Inhibition of ketokinase isoform C in human HepG2 cells assessed as levels of fructose-1-phosphate preincubated for 30 mins followed by substrate addition measured after 3 hrs by LC-MS analysis. In kind it is cell-based.

As for `CSc1ccc(Nc2nc(N3CCNCC3)nc3c(NCC4CC4)ncnc23)cc1`, the IC50 in assay [1] is more than 9000 nM.

As for `Cc1ccccc1Nc1nc(N2CCNCC2)nc2c(NCc3cccs3)ncnc12`, the IC50 in assay [1] was 300 nM. On the same count and under the same terms, under `CSc1ccccc1Nc1nc(N2CCC[C@H](N)C2)nc2c(NCC3CC3)ncnc12` stands 23 nM; under `Cc1ccccc1Nc1nc(N2CCNCC2)nc2c(NCc3nccs3)ncnc12`, 60 nM; under `CCN(CC)c1ncnc2c(Nc3ccccc3C)nc(N3CCNCC3)nc12`, 1700 nM. Still for that read-out and setting: the result for `c1ccc(Nc2nc(N3CCNCC3)nc3c(NCC4CC4)ncnc23)cc1` reads 3200 nM; that for `CSc1ccccc1Nc1nc(N2CCC[C@@H](N)C2)nc2c(NCC3CC3)ncnc12`, 18 nM. Turning to `CCCNc1ncnc2c(Nc3ccccc3C)nc(N3CCNCC3)nc12`, half-maximal inhibition in assay [1] (IC50) required 400 nM.

`Cc1ccccc1Nc1nc(N2CCC(CN)CC2)nc2c(NCC3CC3)ncnc12` registered an IC50 in assay [1] of 70 nM. On the same count and under the same terms, under `CS(=O)(=O)c1ccccc1Nc1nc(N2CCNCC2)nc2c(NCC3CC3)ncnc12` stands more than 9000 nM. For `COCCNc1ncnc2c(Nc3ccccc3SC)nc(N3CCNCC3)nc12`, the IC50 in assay [2] turned out to be 140 nM; in assay [1] it was 7 nM. Molecule `CC(C)c1ccccc1Nc1nc(N2CCNCC2)nc2c(NCC3CC3)ncnc12` showed an IC50 in assay [1] of 5000 nM. Same read-out and setting: the result for `Cc1ccccc1Nc1nc(N2CCN(C)CC2)nc2c(NCC3CC3)ncnc12` reads 1500 nM.

For `CCCCCCNc1ncnc2c(Nc3ccccc3C)nc(N3CCNCC3)nc12`, it took 1600 nM to reach half-maximal inhibition in assay [1] (IC50). Turning to `c1nc(NCC2CC2)c2nc(N3CCNCC3)nc(NC3CCCCC3)c2n1`, in assay [1], the IC50 was more than 9000 nM. Same read-out and setting: the result for `CCSc1ccccc1Nc1nc(N2CCNCC2)nc2c(NCC3CC3)ncnc12` reads more than 9000 nM; that for `C#CCNc1ncnc2c(Nc3ccccc3C)nc(N3CCNCC3)nc12`, 300 nM; that for `Cc1cccc(Nc2nc(N3CCNCC3)nc3c(NCC4CC4)ncnc23)c1`, 2800 nM. The same measure, in the same setting: the result for `Cc1ccccc1Nc1nc(N2CCNCC2)nc2c(NCc3ccccc3)ncnc12` reads 400 nM. In assay [1], `FC(F)(F)Sc1ccccc1Nc1nc(N2CCNCC2)nc2c(NCC3CC3)ncnc12` yielded an IC50 of 3000 nM. The same measure, in the same setting: the result for `Cc1ccccc1Nc1nc(N2CCCNCC2)nc2c(NCC3CC3)ncnc12` reads 300 nM; that for `COc1ccccc1Nc1nc(N2CCNCC2)nc2c(NCC3CC3)ncnc12`, 100 nM; that for `CSc1ccccc1Nc1nc(N2CCNCC2)nc2c(NCC3CCC3)ncnc12`, 18 nM. Same read-out and setting: the result for `CSc1ccccc1Nc1nc(N2CCN(C)CC2)nc2c(NCC3CC3)ncnc12` reads 110 nM. The same measure, in the same setting: under `Cc1ccccc1Nc1nc(NC2CCNCC2)nc2c(NCC3CC3)ncnc12` stands 710 nM. As for `Cc1ccccc1Nc1nc(N2CCNCC2)nc2c(NC3CCCCC3)ncnc12`, the IC50 in assay [1] was 2300 nM.

In turn, `Cc1ccccc1Nc1nc(N2CCC(N)CC2)nc2c(NCC3CC3)ncnc12` had a concentration for half-maximal inhibition (IC50) in assay [1] of 200 nM. Still for that read-out and setting: under `CNc1ncnc2c(Nc3ccccc3C)nc(N3CCNCC3)nc12` stands 400 nM; under `Brc1ccccc1Nc1nc(N2CCNCC2)nc2c(NCC3CC3)ncnc12`, 170 nM.

For `CSc1ccccc1Nc1nc(N2CCNCC2)nc2c(NCc3nccs3)ncnc12`, the IC50 amounted to 270 nM in assay [2] and 16 nM in assay [1]. Take `Fc1ccccc1Nc1nc(N2CCNCC2)nc2c(NCC3CC3)ncnc12`: the IC50 in assay [1] amounted to 1500 nM. The same measure, in the same setting: the result for `CSc1ccccc1Nc1nc(N2CCNCC2)nc2c(NCc3cccs3)ncnc12` reads 30 nM; that for `CSc1ccccc1Nc1nc(N2CCNCC2)nc2c(NCCC3CC3)ncnc12`, 50 nM. On the same count and under the same terms, under `Cc1ccccc1Nc1nc(N2CCOCC2)nc2c(NCC3CC3)ncnc12` stands more than 7000 nM. As for `CSc1ccccc1Nc1nc(N2CC3(CNC3)C2)nc2c(NCC3CC3)ncnc12`, the 50% inhibitory concentration (IC50) in assay [2] turned out to be 360 nM. For `CCc1ccccc1Nc1nc(N2CCNCC2)nc2c(NCC3CC3)ncnc12`, the IC50 in assay [1] came out at 130 nM. Same read-out and setting: the result for `CSc1cccc(Nc2nc(N3CCNCC3)nc3c(NCC4CC4)ncnc23)c1` reads 2000 nM; that for `c1ccc(C2CC2)c(Nc2nc(N3CCNCC3)nc3c(NCC4CC4)ncnc23)c1`, 380 nM. Take `Cc1ccccc1Nc1nc(N2CCNCC2)nc2c(NCC3CC3)ncnc12`: the IC50 in assay [2] worked out at 2400 nM. `CSc1ccccc1Nc1nc(N2CCC(CN)CC2)nc2c(NCC3CC3)ncnc12` had an IC50 in assay [1] of 10 nM. Consider `CSc1ccccc1Nc1nc(N2CC(CN)C2)nc2c(NCC3CC3)ncnc12`, for which the IC50 turned out to be 590 nM in assay [2] and 30 nM in assay [1]. Molecule `CCOc1ccccc1Nc1nc(N2CCNCC2)nc2c(NCC3CC3)ncnc12` had an IC50 in assay [1] of 200 nM. Turning to `CSc1ccccc1Nc1nc(N2CCNCC2)nc2c(N)ncnc12`, the IC50 came out at 78 nM in assay [2] and 7.1 nM in assay [1].

For the molecule `CNCCN(C)c1nc(Nc2ccccc2SC)c2ncnc(NCC3CC3)c2n1`, in assay [1], inhibition was half-maximal at 130 nM (IC50). Take `CSc1ccccc1Nc1nc(N2CCNCC2)nc2c(NCc3ccccn3)ncnc12`: the IC50 in assay [2] is 270 nM; in assay [1], 9.8 nM. As for `c1nc(NCC2CC2)c2nc(N3CCNCC3)nc(NC3CC3)c2n1`, in assay [1], the IC50 is more than 9000 nM. Same read-out and setting: under `Clc1ccccc1Nc1nc(N2CCNCC2)nc2c(NCC3CC3)ncnc12` stands 540 nM; under `CSc1ccccc1Nc1nc(N2CCC(CN(C)C)CC2)nc2c(NCC3CC3)ncnc12`, 140 nM.

The record behind these values is ChEMBL document CHEMBL2016462, “Inhibitors of Ketohexokinase: Discovery of Pyrimidinopyrimidines with Specific Substitution that Complements the ATP-Binding Site” (ACS Med Chem Lett, 2011).
